Measured values published in publication PMC6356585 (Viruses, 2018).
Where a name gives a salt, the structure may show the parent alone. Read-outs that look alike come from different tables or passages of the source.

How the values were obtained:
[1] = test system: ZIKV SPH; experiment: Autophagy compound library screen, ZIKV SPH titer (TCID50) in Vero cells; format: cell-based, Zika virus; details: for activity at 10 µM: Zika virus, Vero, read-out: ZIKV SPH Relative Titer in Vero Cells
[2] = test system: Vero cells; experiment: Cell viability (CellTiter-Glo) of Vero cells; format: cell-based
[3] = test system: ZIKV SPH; experiment: Autophagy compound library screen, ZIKV SPH titer (TCID50) in C6/36 cells; format: cell-based, Zika virus; details: for activity at 10 µM: Zika virus, read-out: ZIKV SPH Relative Titer in C6/36 Cells
[4] = test system: C6/36 cells; format: cell-based, Ae. albopictus
[5] = test system: ZIKV; design: method as in ref 12 = [12]; details: cited from earlier work
[6] = test system: autophagic vesicles in Vero cells; experiment: Autophagy detection (CYTO-ID) in Vero cells; format: cell-based; details: 10 µM compound, 24 h, CYTO-ID green MFI vs DMSO control
[7] = test system: ZIKV IbH; experiment: Autophagy compound screen in Vero cells infected with ZIKV IbH; format: cell-based, Zika virus; details: African-lineage ZIKV IbH, 10 µM
[8] = test system: ZIKV SPH; experiment: Time-of-addition assay in Vero cells; format: cell-based, Zika virus; details: Vero, 24 hpi
[9] = 10 µM compound, MOI 0.1, 40 h, TCID50, ± SEM, three independent trials
[10] = 10 µM compound, MOI 0.1, 96 h, TCID50, ± SEM, three independent trials
[11] = C6/36, 10 µM compound, MOI 0.1, 96 h, TCID50, ± SEM, three independent trials
[12] = 10 µM compound, 40 h, CellTiter-Glo, ± SEM, three independent trials
[13] = 10 µM compound, 96 h, CellTiter-Glo, ± SEM, three independent trials

| SMILES | ZIKV SPH Relative Titer in Vero Cells [1, 9] | Vero Viability ([2]; 10 µM) | ZIKV SPH Relative Titer in C6/36 Cells [3, 10] | Vero Viability [2, 12] | C6/36 Viability [4, 13] | further results |
| --- | --- | --- | --- | --- | --- | --- |
| CCN(CCO)CCCC(C)Nc1ccnc2cc(Cl)ccc12 (stereo not shown) [Hydroxychloroquine] | decreased titers | 85.3 ± 8.4% of untreated control | decreased titers | – | – | activity at 10 µM [3, 11]: 25.1 ± 12.6%; C6/36 Viability ([4]; 10 µM): 35 ± 9.7% of untreated control; ZIKV spread in a mouse model [5]: blocked ZIKV spread |
| CO[C@H]1C[C@@H]2CC[C@@H](C)[C@@](O)(O2)C(=O)C(=O)N2CCCC[C@H]2C(=O)O[C@H]([C@H](C)C[C@@H]2CC[C@@H](O)[C@H](OC)C2)CC(=O)[C@H](C)/C=C(\C)[C@@H](O)[C@@H](OC)C(=O)[C@H](C)C[C@H](C)/C=C/C=C/C=C/1C [Rapamycin] | increased ZIKV titers | 66.0 ± 2.6% of untreated control | slightly decreased production | – | – | ZIKV SPH Relative Titer in C6/36 Cells ([3]; 10 µM compound, MOI 0.1, 96 h, TCID50, ± SEM, three independent trials, listed as rapamycin): slightly decreased titers; activity at 10 µM [3, 11]: 75.7 ± 47.7%; C6/36 Viability ([4]; 10 µM): 59 ± 7.3% of untreated control; Autophagy Activity Factor (AAF) [6]: 7.74 |
| CCCCc1oc2ccccc2c1C(=O)c1cc(I)c(OCCN(CC)CC)c(I)c1 [Amiodarone HCl] | – | – | – | – | – | activity at 10 µM [3, 11]: 2 ± 0.5%; Autophagy Activity Factor (AAF) [6]: 60.40; ZIKV IbH titer in Vero cells compared to control [7]: reduced ZIKV IbH titers |
| CNC(=O)c1cc(Oc2ccc(NC(=O)Nc3ccc(Cl)c(C(F)(F)F)c3)cc2)ccn1 [Sorafenib tosylate] | – | – | – | 58.3 ± 9.9% of untreated control | 23 ± 8.8% of untreated control | activity at 10 µM [1, 9]: 5.8 ± 1.8%; activity at 10 µM [3, 11]: 9.4 ± 8.8% |
| CCCCCC[C@@H]([C@@H](C)O)n1cnc2c(N)ncnc21.Cl [EHNA·HCl] | 81.0 ± 7.6% of untreated control | 92.3 ± 2% of untreated control | 36.4 ± 9.1% of untreated control | – | 55 ± 4.2% of untreated control | – |
| CN1CCN(CCCN2c3ccccc3Sc3ccc(C(F)(F)F)cc32)CC1.Cl.Cl [Trifluoperazine·2HCl] | 2.8 ± 0.7% of untreated control | 51.0 ± 22.1% of untreated control | 0.3 ± 0.3% of untreated control | – | 10 ± 3.8% of untreated control | – |
| O[C@@H](CS)[C@@H](O)CS [DTT] | 60.2 ± 20.1% of untreated control | – | 145.7 ± 16.6% of untreated control | 93.0 ± 1.5% of untreated control | 79 ± 4.4% of untreated control | – |
| NC(=O)c1ncn([C@@H]2O[C@H](CO)[C@@H](O)[C@H]2O)c1N [AICAR] | 112.3 ± 32.3% of untreated control | – | 252.0 ± 115% of untreated control | 90.0 ± 11.1% of untreated control | 125 ± 16.4% of untreated control | – |
| C=CC(C)(C)c1cc(/C=C/C(=O)c2ccc(O)cc2)c(OC)cc1O [Licochalcone A] | 7.2 ± 2.9% of untreated control | – | 51.8 ± 28.5% of untreated control | – | 43 ± 2% of untreated control | ZIKV SPH Relative Titer in Vero Cells ([1]; 10 µM compound, MOI 0.1, 40 h, TCID50, ± SEM, three independent trials, listed as licochalcone A): below 10% of untreated control; Vero Viability ([2]; 10 µM compound, 40 h, CellTiter-Glo, ± SEM, three independent trials, 10 µM): 100.7 ± 9.4% of untreated control; Vero Viability ([2]; 10 µM compound, 40 h, CellTiter-Glo, ± SEM, three independent trials, listed as licochalcone A, 10 µM): above 80% of untreated control; Autophagy Activity Factor (AAF) [6]: 12.33; ZIKV IbH titer in Vero cells compared to control [7]: reduced ZIKV IbH titers |
| CCCCCCCCCCCCCCC[C@@H](O)[C@H](CO)NC(C)=O [C2-dihydroceramide] | 36.5 ± 3% of untreated control | 101.3 ± 3.7% of untreated control | 262.1 ± 51.7% of untreated control | – | 97 ± 5.8% of untreated control | – |
| CCN(CC)CCCCN1c2ccccc2Oc2ccc(Cl)cc21.Cl [Akt Inhibitor X·HCl] | 3.5 ± 3.3% of untreated control | 32.3 ± 14.2% of untreated control | 0.0 ± 0% of untreated control | – | 7 ± 1.9% of untreated control | – |
| COC(=O)C1=C(C)NC(C)=C([N+](=O)[O-])C1c1ccccc1C(F)(F)F (racemic) [(±)Bay K8644] | 34.9 ± 15.2% of untreated control | – | 39.4 ± 10.7% of untreated control | 94.0 ± 3% of untreated control | 53 ± 11.1% of untreated control | – |
| COc1cccc(-c2cc(=O)c3ccccc3o2)c1N [PD-98059] | 101.0 ± 23.3% of untreated control | – | 197.3 ± 40% of untreated control | 90.7 ± 1.3% of untreated control | 93 ± 8.4% of untreated control | – |
| CNc1ccc2oc(C[C@H]3O[C@@]4(CC[C@H]3C)O[C@H]([C@H](C)C(=O)c3ccc[nH]3)[C@H](C)C[C@H]4C)nc2c1C(=O)O [Compound A23187, A23187] | 0.5 ± 0.5% of untreated control | – | 0.0 ± 0% of untreated control | 17.0 ± 6.7% of untreated control | 1 ± 0% of untreated control | – |
| C=CCNc1ncnc2ccc(Br)cc12 [SMER28] | 65.0 ± 5.6% of untreated control | – | 38.7 ± 12.2% of untreated control | 92.7 ± 3.5% of untreated control | 36 ± 5.3% of untreated control | – |
| Nc1ncnc2c1nc(Sc1ccc(Cl)cc1)n2[C@@H]1O[C@@H]2COP(=O)([O-])O[C@H]2[C@H]1O.[Na+] [8-CPT-cAMP·Na] | 107.8 ± 65.3% of untreated control | – | 60.1 ± 18.3% of untreated control | 92.7 ± 0.7% of untreated control | 75 ± 3.7% of untreated control | – |
| Cl.N [Ammonium chloride] | – | – | – | – | – | ZIKV replication, time-of-addition ([8]; 30 mM ammonium chloride added later in infection): less inhibitory; ZIKV replication, time-of-addition ([8]; 30 mM ammonium chloride, 2 h prior to infection and at the time of infection): inhibited ZIKV replication |
| Cc1ccc(C(=O)Nc2ccc(S(=O)(=O)[O-])c3cc(S(=O)(=O)[O-])cc(S(=O)(=O)[O-])c23)cc1NC(=O)c1cccc(NC(=O)Nc2cccc(C(=O)Nc3cc(C(=O)Nc4ccc(S(=O)(=O)[O-])c5cc(S(=O)(=O)[O-])cc(S(=O)(=O)[O-])c45)ccc3C)c2)c1.[Na+].[Na+].[Na+].[Na+].[Na+].[Na+] [Suramin·6Na] | 107.4 ± 44.8% of untreated control | 92.0 ± 1.2% of untreated control | 86.6 ± 23.2% of untreated control | – | 86 ± 8.4% of untreated control | – |
| COC[C@H]1OC(=O)c2coc3c2[C@@]1(C)C1=C(C3=O)[C@@H]2CCC(=O)[C@@]2(C)C[C@H]1OC(C)=O [Wortmannin] | – | – | – | 79.0 ± 3.1% of untreated control | – | activity at 10 µM ([1]; 40 h): 46.9 ± 9%; activity at 10 µM ([3]; C6/36, 96 h): 190 ± 57.8%; C6/36 Viability ([4]; 10 µM): 105 ± 5.5% of untreated control |
